# Test results from patent US20030186869A1, “Polymer compositions comprising antifibrotic agents, and methods of treatment, pharmaceutical compositions, and methods of preparation therefor” (priority 1990, published 2003).
# Like-named read-outs stand apart in the source and are kept apart here.
# System: RFL-6 cells
# Test: IC50 experiment, cytotoxicity / growth inhibition of RFL-6 rat fibroblast cells
# Format: cell-based
# Details: for factor by which cytotoxicity as PEG construct is reduced compared to the free amino acid: RFL-6 cells; for IC50: mean ± SD (n)
# Experimental: In this test two different synthesis batches of cis-hydroxyproline (CHOP) linked to PEG were tested, along with free CHOP. […] The differences between the two batches of CHOP-PEG are not significant.
# [1] = Rattus norvegicus, RFL-6, free amino acid, read-out: IC50, Free AA
structure (smiles),measurement,setting,value
"O=C(O)C1C=CCN1 (racemic) [DHP, 3,4-dehydro-DL-proline]",factor by which cytotoxicity as PEG construct is reduced compared to the free amino acid,,8 ×
same,IC50,[1],0.7 ± 0.3 mM
"O=C(O)[C@@H]1CSCN1 [THP, (R)-(−)-2-thiazolidine-4-carboxylic acid]",factor by which cytotoxicity as PEG construct is reduced compared to the free amino acid,,12 ×
same,IC50,[1],0.7 ± 0.1 mM
"O=C(O)[C@@H]1CCN1 [ACA, (S)-(−)-2-azetidinecarboxylic acid]",factor by which cytotoxicity as PEG construct is reduced compared to the free amino acid,,4 ×
same,IC50,[1],1.7 ± 1.8 mM
"NCCCC[C@H](N)C(=O)N1C[C@@H](O)C[C@H]1C(=O)O (relative stereo) [CHOP-Lys, L-lysine-cis-4-hydroxy-L-proline dipeptide]",IC50,"lysyl dipeptide, read-out: IC50, AA-Lys",7 mM
